Experimental data taken from publication PMC13147306 (The Febs Journal, 2025).

Tests used:
[1] = target: T1, DnrK (Streptomyces peucetius, UniProt Q06528); assay: O-methylation assay, LC-MS/HPLC; format: biochemical; settings: 0.5 mM substrate, 2 mM SAM, 5 μM enzyme, HEPES-NaOH pH 8, 37 °C, 24 h
T1 sequence (Q06528 1-356): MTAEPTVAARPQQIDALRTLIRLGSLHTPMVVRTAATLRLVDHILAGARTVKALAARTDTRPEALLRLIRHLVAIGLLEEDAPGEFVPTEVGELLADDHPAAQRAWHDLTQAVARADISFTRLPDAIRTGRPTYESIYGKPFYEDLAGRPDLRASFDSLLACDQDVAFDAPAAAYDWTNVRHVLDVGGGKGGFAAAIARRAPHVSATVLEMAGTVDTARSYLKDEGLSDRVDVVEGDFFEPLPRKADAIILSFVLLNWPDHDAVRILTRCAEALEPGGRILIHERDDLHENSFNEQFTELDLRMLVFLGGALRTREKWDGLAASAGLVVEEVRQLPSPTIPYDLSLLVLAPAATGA

[2] = system: AthePKS; assay: steady-state kinetics, HPLC of product 1b; format: biochemical; settings: read-out: apparent Km; 400 μM malonyl-CoA, 50 mM Tris/HCl pH 7.5, 37 °C

Row | Km [2] | SMILES | O-methylation assay, LC-MS/HPLC [1]
1 |  | O=c1cc(O)c2ccccc2[nH]1 [2b] | it was also active with the other heterocycles 2b, 6b, and 8b
2 | 42.6 µM | CNc1ccccc1C(=O)SCCNC(=O)CCNC(=O)[C@H](O)C(C)(C)COP(=O)(O)OP(=O)(O)OC[C@H]1O[C@@H](n2cnc3c(N)ncnc32)[C@H](O)[C@@H]1OP(=O)(O)O [1a, N-methylanthraniloyl-CoA] | 
3 |  | Cn1c(=O)cc(O)c2ccccc21 [1b, 4-hydroxy-1-methyl-2-quinolone] | DnrK was still the best‐performing enzyme
